Data: article PMC5684143, “New melanocortin-like peptide of E. coli can suppress inflammation via the mammalian melanocortin-1 receptor (MC1R): possible endocrine-like function for microbes of the gut” (NPJ Biofilms and Microbiomes, 2017)

Columns and labels:
[1] = test system: RAW 264.7 cells; assay: Peptidoglycan (PGN)-induced TNF release by RAW 264.7 cells; format: cell-based, murine; details: picomolar range of peptide; waning inhibition at nanomolar concentrations
Protocol: (§1) Murine macrophage-like RAW 264.7 cells were obtained from American Type Culture Collection, and were grown in Dulbecco’s Modified Eagle’s Medium (DMEM, Life Technologies) containing 10% (vol/vol) heat-inactivated fetal bovine serum (FBS, Hyclone Lab. Inc.), penicillin 100 U/ml, and streptomycin 100 μg/ml (BioWhittaker Inc.). Cells were suspended in medium and incubated in 24-well or 48-well tissue-culture plates overnight in a humidified incubator (37 °C, 5% CO2). Growth medium was removed and replaced by Opti-MEM I serum-free medium (Life Technologies) overnight. In the experiments, cell monolayers were stimulated with HMGB1 or LPS, in the absence or presence of MECO-1 or alpha-MSH; cell-free supernatants were assayed for TNF by ELISA or HMGB1 by western blotting.
Concentrations of TNF and IL-6 were each determined using a commercially available enzyme-linked immunosorbent assay (ELISA) kit (R&D System Inc.) as previously described.[34] The levels of TNF or IL-6 were calculated with reference to standard curves.
Fig. 2 Cytokine-induced TNF release inhibited by MECO-1. a Lipopolysaccharide (LPS), derived from the cell wall of Gram-negative bacteria, is a TLR4 and TLR2 agonist. RAW 264.7 cells were treated with MECO-1 and LPS simultaneously and incubated overnight. Supernatants were tested for TNF with ELISA. b Poly I:C, synthetic double stranded RNA, is recognized by TLR3. […]

[2] = test system: RAW 264.7 cells; assay: LPS-induced HMGB1 release by RAW 264.7 cells (western blot); format: cell-based, murine; details: LPS 100 ng/ml, peptide 10^-10 M, 16-20 hrs, four independent experiments, P < 0.01
Protocol: as §1, with “In the experiments, cell monolayers were stimulated with HMGB1 or LPS, in the absence or presence of MECO-1 or alpha-MSH; cell-free supernatants were assayed for TNF by ELISA or HMGB1 by western blotting.” left out
The levels of HMGB1 in the culture medium or murine serum were measured by western immunoblotting as previously described.[30] […] The relative band intensity was quantified by using the NIH image 1.59 software. The levels of HMGB1 (expressed as % maximum effect) were calculated with reference to standard curves generated with purified rHMGB1 and expressed as mean ± SEM of four experiments.
Murine macrophage-like RAW 264.7 cells were incubated with LPS (100 ng/ml) in the absence or presence of MECO-1 or alpha-MSH at 10^-10 M. At 16-20 hrs after stimulation, aliquots of cell-free medium were examined. HMGB1 levels in the (conditioned) culture medium were expressed as mean ± SEM of four independent experiments with the peak level (obtained with LPS) set at 100%. […]

[3] = test system: NF-kappa B; assay: NF-kappa-B activity (electrophoretic mobility shift assay) in LPS-treated RAW 264.7 cells; format: cell-based, murine; details: LPS 100 ng/ml; peptide 10^-8 M and 10^-6 M; 2 hours; EMSA; two separate experiments
Protocol: Nuclear extracts were prepared from 1 × 10^6 treated cells using the NE-PER nuclear extraction reagents (Pierce). DNA was biotin labeled using the biotin 3ʹ-end-labeling kit (Pierce) in a 50-µl reaction buffer and 5 pmol of double-stranded NF-kappa-B oligonucleotide (5ʹ-[…]-3ʹ and 3ʹ-[…]-5ʹ, Promega). Electrophoretic mobility shift assays for NF-κB was performed using the Lightshift Chemiluminescent Electrophoretic Mobility Shift Assay kit (Pierce) following the manufacturer’s protocol. Densitometric values for the active transcription factors were obtained using GS-800 Calibrated Densitometer Software (Biorad).[36]
RAW 264.7 cells ([…]) were incubated with LPS (100 ng/ml) with or without MECO-1 or alpha-MSH at 10^-8 M and 10^-6 M for 2 hours. Nuclear extracts were mixed with biotin-labeled oligonucleotides containing binding sites for NF-kappa B and then run on a gel, 4-20% Ready gel TBE, in an electrophoretic mobility shift assay. Data represent mean +/- SEM of two separate experiments.

[4] = test system: Balb/C mice; assay: Lethal LPS endotoxin sepsis in mice, survival; format: in vivo; details: two experiments pooled; peptide i.p. twice daily for 3 days; saline 0 of 19; alpha-MSH 5 of 20, MECO-1 15 of 30
From the text: Kaplan–Meier analysis was used to determine statistical significance of the differences in survival of mice. p ≦ 0.05 was considered significant. Values in the figures were expressed as mean(±)S.E.M. of two or three independent experiments, where each experimental point was derived from duplicates or triplicates. Student’s two-tailed t-test was used to compare the means between groups. p-value of 0.05 or less was considered statistically significant. The design (including sample size) of experiments in Figs. 2–7, and Table 1 followed closely the design of previous experiments by us and others. The results of prior experiments in our laboratory (both in vitro experiments and animal experiments) were used to decide sample size for each of the experiments shown.[37]–[41]
Fig. 6 MECO-1 rescues mice from lethal sepsis. a Endotoxin. Balb/C mice (males) were injected once intraperitoneally with LPS at a dose estimated to be an LD75. Immediately thereafter, the first doses of MECO-1 at 0.5 mg/kg (low dose), MECO-1 at 5 mg/kg (high dose), alpha-MSH at 5 mg/kg (high dose) or saline alone were administered intraperitoneally. Peptide or saline were given twice daily for 3 days for a total of six doses. Ten mice were in each group. Survival was monitored daily for 2 weeks. […] Animals were monitored for survival for 14 days. […]

## alpha-melanocyte-stimulating hormone [alpha-MSH]
[1]
  inhibition of PGN-induced TNF release: Up to 75%
[2]
  LPS-induced HMGB-1 secretion: markedly reduced
[3]
  rise in NF-kB activity: active in attenuating
[4]
  mice rescued from lethal dose of LPS endotoxin: 25%
